Assay results from patent US11905306B2 (priority 2021, dated 2024).

Columns and labels:
[1] = tested on: SARS-2; test: microbe, parasite or virus in culture; format: cell-based; settings: Severe acute respiratory syndrome coronavirus 2, read-out: SARS-2 VU-EC50 (μM) (A549-hACE2)
[2] = in vitro; settings: African green monkey
[3] = tested on: Toronto 2 SARS CoV-1; test: organism not typed; format: cell-based; settings: Vero C1008, 72 h, read-out: SARS-1 EC50 (μM) VeroE6
[4] = tested on: SARS-2
[5] = tested on: USA_WA1/2020 SARS CoV-2; test: microbe, parasite or virus in culture; format: cell-based; settings: Severe acute respiratory syndrome coronavirus 2, Vero C1008, 72 h, read-out: SARS-2 EC50 (μM) VeroE6

Row | SMILES | EC50 [1] [µM] | CC50 [2] [µM] | EC50 [3] [µM] | SARS-2 VU-VTR @ 20 μM (A549-hACE2) (logs) [4] [logs] | EC50 [5] [µM]
1 | CC1(C)CN(c2ccc(NC(=O)c3cccc(C#Cc4ccccn4)c3)cc2)C1=O [Compound 58, N-(4-(3,3-dimethyl-2-oxoazetidin-1-yl)phenyl)-3-(pyridin-2-ylethynyl)benzamide] | 0.38 | > 40 | 0.3 | 1.93 | 0.5
2 | O=C(Nc1cccc(C#Cc2ccccn2)c1)c1ccc(N2CCCOC2=O)cc1 [Compound 18, 4-(2-Oxo-1,3-oxazinan-3-yl)-N-(3-(pyridin-2-ylethynyl)phenyl)benzamide] | – | > 30 | > 30 | – | > 30
3 | O=C(Nc1ccc(N2CCCS2(=O)=O)cc1)c1cccc(C#Cc2ccccn2)c1 [Compound 74, N-(4-(1,1-dioxidoisothiazolidin-2-yl)phenyl)-3-(pyridin-2-ylethynyl)benzamide] | – | > 30 | 0.91 | – | > 30
4 | NC(=O)Nc1ccc(C(=O)Nc2cccc(C#Cc3ccccn3)c2)cc1 [Compound 12, N-(3-(pyridin-2-ylethynyl)phenyl)-4-ureidobenzamide] | – | > 30 | > 30 | – | > 30
5 | COC(=O)c1cccc(NC(=O)c2cccc(C#Cc3ccccn3)c2)c1 [Compound 64, Methyl 3-(3-(pyridin-2-ylethynyl)benzamido)benzoate] | – | 21.7 | 4.19 | – | > 30
6 | O=C(Nc1cccc(C#Cc2ccccn2)c1)c1ccc(NC(=O)C(F)(F)F)cc1 [Compound 10, N-(3-(Pyridin-2-ylethynyl)phenyl)-4-(2,2,2-trifluoroacetamido)benzamide] | – | > 30 | 4.89 | – | 6.52
7 | CCCC(=O)Nc1ccc(C(=O)Nc2cccc(C#Cc3ccccn3)c2)cc1 [Compound 7, 4-Butyramido-N-(3-(pyridin-2-ylethynyl)phenyl)benzamide] | – | > 30 | 0.16 | – | 0.26
8 | CC(=O)Nc1ccc(C(=O)Nc2cccc(C#Cc3ccccn3)c2)nn1 [Compound 31, 6-Acetamido-N-(3-(pyridin-2-ylethynyl)phenyl)pyridazine-3-carboxamide] | – | > 30 | > 30 | – | > 30
9 | COc1cc(C#Cc2ccccn2)cc(NC(=O)c2ccc3c(c2)CCCC(=O)N3)c1 [Compound 51, N-(3-Methoxy-5-(pyridin-2-ylethynyl)phenyl)-2-oxo-2,3,4,5-tetrahydro-1H-benzo[b]azepine-7-carboxamide] | – | 12.2 | 0.51 | – | 0.52
10 | CC(=O)Nc1ccc(-c2nc3ccc(C#Cc4ccccn4)cc3[nH]2)cc1 [Compound 49, N-(4-(5-(Pyridin-2-ylethynyl)-1H-benzo[d]imidazol-2-yl)phenyl)acetamide] | – | > 30 | > 30 | – | > 30
11 | O=C(Nc1cccc(C#Cc2ccccn2)c1)c1ccc(N2CCC2=O)cc1 [Compound 20, 4-(2-oxoazetidin-1-yl)-N-(3-(pyridin-2-ylethynyl)phenyl)benzamide] | – | > 30 | 2.12 | – | 11.7
12 | COC(=O)c1ccc(NC(=O)c2cccc(C#Cc3ccccn3)c2)cc1 [Compound 63, Methyl 4-(3-(pyridin-2-ylethynyl)benzamido)benzoate] | – | > 30 | 0.43 | – | 0.55
13 | Cc1cc(C#Cc2ccccn2)nc(NC(=O)c2ccc3c(c2)CCC(=O)N3)c1 [Compound 47, N-(4-Methyl-6-(pyridin-2-ylethynyl)pyridin-2-yl)-2-oxo-1,2,3,4-tetrahydroquinoline-6-carboxamide] | – | > 30 | 5.51 | – | 6.29
14 | CC1(NC(=O)c2ccc(NC(=O)c3cccc(C#Cc4ccccn4)c3)cc2)CC1 [Compound 61, N-(4-((1-methylcyclopropyl)carbamoyl)phenyl)-3-(pyridin-2-ylethynyl)benzamide] | – | > 30 | > 30 | – | 0.71
15 | CC(=O)Nc1ccc(NC(=O)c2cccc(C#Cc3ccccn3)c2)cc1 [Compound 55, N-(4-acetamidophenyl)-3-(pyridin-2-ylethynyl)benzamide] | – | > 30 | 2.82 | – | 4.18
16 | O=C(Nc1cccc(C#Cc2ccccn2)c1)c1ccc(N2CCCC3(CCC3)C2=O)cc1 [Compound 36, 4-(5-Oxo-6-Azaspiro[3.5]nonan-6-yl)-N-(3-(pyridin-2-ylethynyl)phenyl)benzamide] | – | 15.3 | 0.35 | – | 0.49
